Test results taken from patent publication US9254331B2, “Sulforaphane stabilization” (AURIGA INTERNATIONAL, priority 2010, dated 2016).

Experiments:
[1] = allyl isothiocyanate sample treated one hour in boiling water, cited from earlier work
[2] = cited from earlier work
[3] = NMR
[4] = mixture of isoamyl salicylate, capric/caprylic triglyceride and silicone derivative, 2% sulforaphane
[5] = after seven months, cited from earlier work
[6] = remark: listed apart in the source
Protocol: The stability of sulforaphane was investigated in the following way: a 1% sulforaphane solution is prepared in different media to be tested. The preparation, maintained in a closed container is then thermostated at 25° C., 37° C. or 40° C. Kinetic tracking is carried out by assaying the residual sulforaphane.
The HPLC method used is the following:
Column: Discovery C18 (15 cm×4.8 mm×5 μm)
Mobile Phase: isocratic CH3CN/H2O (50/50)
Injection (10 μL) after dilution of the parent solution in the mobile phase in order to obtain a sulforaphane concentration of 1 mg/mL.
External standard: naphthalene.
1% of sulforaphane were placed per mL of solution containing diphospholipides such as for example Phosal®. The preparation, maintained in a closed container is then thermostated at 40° C. Kinetic tracking is carried out by assaying the residual sulforaphane:
1% m/m sulforaphane solutions were prepared in each anhydrous ester mentioned above. Kinetic tracking of the degradation was then carried out at 40° C. by using naphthalene as an external standard.
Kinetic tracking of the degradation was then carried out at 40° C. by using naphthalene, as an external standard.

[7] = Stabilization of isothiocyanates with ascorbic acid upon storage; conditions: similar study with sulforaphane
From the text: Further, it is also known how to stabilize allyl isothiocyanate with ascorbic acid.

[8] = not given; remark: listed apart in the source
[9] = closed flask, non-inertized, exposed to light

C=CC1SC=CCS1 (centres unmarked) [2-vinyl-4-1,3-dithiin]
Concentration at pH 2.7 [1]: Traces
Concentration at pH 7.0 [1]: Traces
Concentration at pH 9.0 [1]: Traces

C1=CSSC1 [3H-1,2-dithiolene]
Concentration at pH 2.7 [1]: 0.13 mg/g
Concentration at pH 7.0 [1]: 0.17 mg/g
Concentration at pH 9.0 [1]: 0.19 mg/g

C1=CSSSC1 [4H-1,2,3-trithiin]
Concentration at pH 2.7 [1]: Traces
Concentration at pH 7.0 [1]: Traces
Concentration at pH 9.0 [1]: Traces

CC1CSSSS1 (centres unmarked) [5-methyl-1,2,3,4-tetrathiane]
Concentration at pH 2.7 [1]: 0.01 mg/g
Concentration at pH 7.0 [1]: 0.02 mg/g
Concentration at pH 9.0 [1]: 0.03 mg/g

C=CCN=C=S [allyl isothiocyanate, reference compound]
Concentration at pH 2.7 [1]: 379.06 mg/g
Concentration at pH 7.0 [1]: 290.27 mg/g
Concentration at pH 9.0 [1]: 270.46 mg/g

C=CCSC#N [allyl thiocyanate]
Concentration at pH 2.7 [1]: 9.21 mg/g
Concentration at pH 7.0 [1]: 13.84 mg/g
Concentration at pH 9.0 [1]: 12.32 mg/g

C=CCSSCC=C [diallyl disulfide]
Concentration at pH 2.7 [1]: 8.09 mg/g
Concentration at pH 7.0 [1]: 11.47 mg/g
Concentration at pH 9.0 [1]: 12.71 mg/g

C=CCSCC=C [diallyl sulfide]
Concentration at pH 2.7 [1]: 13.09 mg/g
Concentration at pH 7.0 [1]: 22.16 mg/g
Concentration at pH 9.0 [1]: 26.40 mg/g

C=CCSSSSCC=C [diallyl tetrasulfide]
Concentration at pH 2.7 [1]: Traces
Concentration at pH 7.0 [1]: Traces
Concentration at pH 9.0 [1]: Traces

C=CCSSSCC=C [diallyl trisulfide]
Concentration at pH 2.7 [1]: 10.31 mg/g
Concentration at pH 7.0 [1]: 13.63 mg/g
Concentration at pH 9.0 [1]: 14.11 mg/g

C[S+]([O-])CCCCN=C=S (centres unmarked) [sulforaphane]
degradation under accelerated versus normal ageing conditions ([2]; 50% of acacia gum, 40° C./75% humidity versus 25° C./60% humidity): twice more significant
degradation with 70% gum arabic at 25° C. ([2]; 70% gum arabic, 25° C., first week, then relatively stable): slight degradation
degradation with 70% gum arabic ([2]; 70% gum arabic, after one month, 40° C.): ≤ 30%
stabilization with 50% of acacia gum ([2]; sample having 50% of acacia gum): does not exhibit any particular stabilization
degradation on heating with reflux in chloroform ([3]; 24 hour reflux): did not either show any degradation
stability in solution in DMSO [3, 9]: stable for at least one week
stability in solution in chloroform [3, 9]: stable for at least one week
penetration into the skin [4]: good penetration into the skin
solubility in argan oil (argan oil): ~2%
solubility in eglantine rose oil (eglantine rose oil): ~3.5%
solubility in anhydrous esters (ester 610, methyl salicylate, isoamyl salicylate (Example 1)): > 6 % (m/m)
solubility in jojoba oil (jojoba oil): about 0.5 % (m/m)
solubilization in cosmetic formulation (mixture of isoamyl salicylate, capric/caprylic triglyceride and silicone derivative): 2%
solubility in pure anhydrous esters (triethylpropane triostearate, coco caprylate-caprate (Example 4)): > 6 % (m/m)
degradation with less suitable cyclodextrins ([5]; less suitable, not very stabilizing cyclodextrins): up to 50%
degradation with α-cyclodextrins ([5]; α-cyclodextrins): less than 10%
degradation in 2-octyl-dodecanol and dimethyl isosorbide ([6]; 1% (m/m) in 2-octyl-dodecanol (Nerol 20) and dimethyl isosorbide): degraded over time
degradation in vegetable oils ([6]; 1% (m/m) in jojoba, argan and eglantine rose oils): too substantial to allow commercial use
degradation in isostearate and coco caprylate-caprate ([6]; 1% (m/m) in triethylpropane triostearate and coco caprylate-caprate CCC, 40° C.): negligible
degradation in phospholipid medium ([6]; 1% in solution containing phospholipids (Phosal), 40° C., in less than 3 days): more than 40%
degradation in anhydrous esters ([6]; 1% m/m in ester 610, methyl salicylate, isoamyl salicylate, 40° C.): negligible
loss of sulforaphane ([6]; 1% solution in water, 40° C., after 2 days): 10%
remaining fraction of initial content ([6]; 1% solution in water, 40° C., after 10 days): 50%
degradation in cosmetic formulation ([6]; 2% (m/m) in isoamyl salicylate, capric/caprylic triglyceride and silicone derivative, 6 months at 40° C.): 3-5%
degradation in galenic formulation ([6]; 2% sulforaphane, 2 anhydrous esters and methylpolysiloxane A or B): no degradation is observed
time after which residual sulforaphane begins to fall ([6]; antioxidant hydro-alcoholic medium, 25° C.): 1 days
remaining fraction of initial amount ([6]; antioxidant hydro-alcoholic medium, 37° C., in less than 7 days): no more than 50%
degradation trend in ethanol ([6]; ethanol, 40° C., early days, coupling compound with ethanol formed): very dearly marked
degradation in tocopheryl acetate ([6]; tocopheryl acetate): no significant degradation
stabilization of sulforaphane by ascorbic acid [7]: not able to stabilize
product degraded into 3-butenylisothiocyanate on injection in gas chromatography ([8]; thermostated injector at 250° C.): 80%
degradation when injected directly onto the column ([8]; without passing through the injector): no degradation peak is observed
